Experiments:
HDAC8 = target: T1, HDAC8 (Homo sapiens, UniProt Q9BY41); test: HDAC isoform inhibition, HDAC8; type: biochemical
T1 sequence (Q9BY41 1-377): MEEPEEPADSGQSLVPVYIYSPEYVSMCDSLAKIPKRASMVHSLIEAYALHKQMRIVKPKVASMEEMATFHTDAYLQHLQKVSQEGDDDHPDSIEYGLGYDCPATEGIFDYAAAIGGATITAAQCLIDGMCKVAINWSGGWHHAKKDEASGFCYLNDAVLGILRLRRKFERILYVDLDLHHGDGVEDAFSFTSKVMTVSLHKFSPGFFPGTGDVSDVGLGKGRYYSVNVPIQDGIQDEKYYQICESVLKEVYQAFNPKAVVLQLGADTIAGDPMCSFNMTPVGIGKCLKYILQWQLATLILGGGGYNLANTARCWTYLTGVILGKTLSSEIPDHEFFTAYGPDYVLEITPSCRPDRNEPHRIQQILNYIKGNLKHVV

HDAC2 = HDAC2 (Homo sapiens, UniProt Q92769); test: In vitro HDAC inhibition assay, HDAC2; type: biochemical
L3.6pl = test: In vitro growth inhibition (GI), MTS cell proliferation assay (Table 5), L3.6pl; type: cell-based; details: Homo sapiens, 72 hours post-treatment
HDAC5 = HDAC5 (Homo sapiens, UniProt Q9UQL6); test: HDAC isoform inhibition, HDAC5; type: biochemical
HDAC7 = target: T2, HDAC7 (Homo sapiens, UniProt Q8WUI4); test: HDAC isoform inhibition, HDAC7; type: biochemical
T2 sequence (Q8WUI4 1-952): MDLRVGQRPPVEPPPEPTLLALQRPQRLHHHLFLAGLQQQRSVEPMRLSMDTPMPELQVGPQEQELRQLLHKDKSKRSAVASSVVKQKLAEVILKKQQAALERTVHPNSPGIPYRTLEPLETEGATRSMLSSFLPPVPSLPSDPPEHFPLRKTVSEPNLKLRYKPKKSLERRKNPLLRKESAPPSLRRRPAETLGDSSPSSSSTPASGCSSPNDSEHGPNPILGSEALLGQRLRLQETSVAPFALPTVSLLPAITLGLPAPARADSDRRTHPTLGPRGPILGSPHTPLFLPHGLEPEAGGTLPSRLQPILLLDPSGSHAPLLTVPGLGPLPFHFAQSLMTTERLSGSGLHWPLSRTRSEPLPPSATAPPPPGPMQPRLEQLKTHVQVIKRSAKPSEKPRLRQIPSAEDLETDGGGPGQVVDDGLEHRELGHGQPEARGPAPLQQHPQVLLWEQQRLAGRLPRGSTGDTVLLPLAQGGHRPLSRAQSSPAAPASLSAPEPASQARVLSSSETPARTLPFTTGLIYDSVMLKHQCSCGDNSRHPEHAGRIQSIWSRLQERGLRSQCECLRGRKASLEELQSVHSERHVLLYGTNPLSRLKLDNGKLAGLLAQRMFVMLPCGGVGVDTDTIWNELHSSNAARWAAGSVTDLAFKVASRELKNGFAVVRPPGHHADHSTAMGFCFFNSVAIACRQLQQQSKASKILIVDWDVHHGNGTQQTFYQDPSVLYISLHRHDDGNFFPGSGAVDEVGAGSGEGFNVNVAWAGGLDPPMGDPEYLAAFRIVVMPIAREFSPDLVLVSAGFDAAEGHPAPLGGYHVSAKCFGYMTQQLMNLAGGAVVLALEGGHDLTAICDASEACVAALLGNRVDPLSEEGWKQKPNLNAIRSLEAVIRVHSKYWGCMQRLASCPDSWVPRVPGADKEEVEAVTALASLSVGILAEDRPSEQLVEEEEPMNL

HDAC9 = HDAC9 (Homo sapiens, UniProt Q9UKV0); test: HDAC isoform inhibition, HDAC9; type: biochemical
Human HDAC6 = target: T3, Human HDAC6 (Homo sapiens, UniProt Q9UBN7); test: In vitro HDAC inhibition assay, HDAC6; type: biochemical; details: read-out: HDAC isoform IC50, HDAC6
T3 construct: Full length with N-terminal GST tag, MW=159 kDa; GST (N); host or cells: baculovirus expression system, Sf9 cells
T3 sequence (Q9UBN7 1-1215): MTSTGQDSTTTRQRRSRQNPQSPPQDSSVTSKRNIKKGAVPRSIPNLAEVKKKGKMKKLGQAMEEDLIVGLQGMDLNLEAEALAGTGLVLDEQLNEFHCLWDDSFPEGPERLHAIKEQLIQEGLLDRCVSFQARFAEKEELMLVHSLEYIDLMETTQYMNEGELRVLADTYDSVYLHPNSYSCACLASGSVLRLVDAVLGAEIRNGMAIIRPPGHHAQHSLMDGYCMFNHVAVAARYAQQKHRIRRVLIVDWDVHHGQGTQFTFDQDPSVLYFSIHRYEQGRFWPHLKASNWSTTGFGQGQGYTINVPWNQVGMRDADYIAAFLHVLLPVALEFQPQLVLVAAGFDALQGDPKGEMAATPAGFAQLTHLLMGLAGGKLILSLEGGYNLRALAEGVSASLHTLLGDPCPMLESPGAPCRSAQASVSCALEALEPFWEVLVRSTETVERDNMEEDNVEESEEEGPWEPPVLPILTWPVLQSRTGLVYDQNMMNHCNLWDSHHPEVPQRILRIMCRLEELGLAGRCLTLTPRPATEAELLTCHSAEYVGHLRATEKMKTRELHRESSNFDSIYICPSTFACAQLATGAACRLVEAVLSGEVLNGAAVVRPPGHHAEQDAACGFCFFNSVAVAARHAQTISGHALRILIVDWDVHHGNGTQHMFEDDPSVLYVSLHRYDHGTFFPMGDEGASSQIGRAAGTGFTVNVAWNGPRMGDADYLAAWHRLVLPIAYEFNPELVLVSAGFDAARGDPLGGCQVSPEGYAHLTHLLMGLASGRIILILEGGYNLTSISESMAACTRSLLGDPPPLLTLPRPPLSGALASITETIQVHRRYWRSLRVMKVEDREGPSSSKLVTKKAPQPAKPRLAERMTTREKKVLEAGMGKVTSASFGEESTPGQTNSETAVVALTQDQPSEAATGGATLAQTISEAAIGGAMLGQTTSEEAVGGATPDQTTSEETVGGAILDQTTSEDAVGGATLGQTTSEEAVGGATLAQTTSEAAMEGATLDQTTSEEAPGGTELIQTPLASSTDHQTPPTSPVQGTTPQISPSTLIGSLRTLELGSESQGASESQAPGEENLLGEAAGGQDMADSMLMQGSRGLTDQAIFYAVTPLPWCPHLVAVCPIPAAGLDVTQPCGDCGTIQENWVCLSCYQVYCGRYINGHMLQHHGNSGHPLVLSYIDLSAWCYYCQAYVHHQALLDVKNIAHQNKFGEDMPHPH

HDAC2, sequence (Q92769 whole entry): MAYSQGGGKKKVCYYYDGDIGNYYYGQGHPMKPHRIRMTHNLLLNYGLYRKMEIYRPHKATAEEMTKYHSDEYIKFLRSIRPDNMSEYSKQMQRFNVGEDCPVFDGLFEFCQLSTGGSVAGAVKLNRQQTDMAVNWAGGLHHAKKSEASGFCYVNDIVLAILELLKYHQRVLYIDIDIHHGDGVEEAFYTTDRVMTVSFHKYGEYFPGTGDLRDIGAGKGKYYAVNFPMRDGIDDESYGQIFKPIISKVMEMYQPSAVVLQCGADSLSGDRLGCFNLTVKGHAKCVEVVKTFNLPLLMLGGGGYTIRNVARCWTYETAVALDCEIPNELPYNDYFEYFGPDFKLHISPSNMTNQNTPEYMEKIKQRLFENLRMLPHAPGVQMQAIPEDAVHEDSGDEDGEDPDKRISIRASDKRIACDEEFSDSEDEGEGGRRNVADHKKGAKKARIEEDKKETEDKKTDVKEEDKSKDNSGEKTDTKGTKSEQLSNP
HDAC9, sequence (Q9UKV0 whole entry, canonical isoform): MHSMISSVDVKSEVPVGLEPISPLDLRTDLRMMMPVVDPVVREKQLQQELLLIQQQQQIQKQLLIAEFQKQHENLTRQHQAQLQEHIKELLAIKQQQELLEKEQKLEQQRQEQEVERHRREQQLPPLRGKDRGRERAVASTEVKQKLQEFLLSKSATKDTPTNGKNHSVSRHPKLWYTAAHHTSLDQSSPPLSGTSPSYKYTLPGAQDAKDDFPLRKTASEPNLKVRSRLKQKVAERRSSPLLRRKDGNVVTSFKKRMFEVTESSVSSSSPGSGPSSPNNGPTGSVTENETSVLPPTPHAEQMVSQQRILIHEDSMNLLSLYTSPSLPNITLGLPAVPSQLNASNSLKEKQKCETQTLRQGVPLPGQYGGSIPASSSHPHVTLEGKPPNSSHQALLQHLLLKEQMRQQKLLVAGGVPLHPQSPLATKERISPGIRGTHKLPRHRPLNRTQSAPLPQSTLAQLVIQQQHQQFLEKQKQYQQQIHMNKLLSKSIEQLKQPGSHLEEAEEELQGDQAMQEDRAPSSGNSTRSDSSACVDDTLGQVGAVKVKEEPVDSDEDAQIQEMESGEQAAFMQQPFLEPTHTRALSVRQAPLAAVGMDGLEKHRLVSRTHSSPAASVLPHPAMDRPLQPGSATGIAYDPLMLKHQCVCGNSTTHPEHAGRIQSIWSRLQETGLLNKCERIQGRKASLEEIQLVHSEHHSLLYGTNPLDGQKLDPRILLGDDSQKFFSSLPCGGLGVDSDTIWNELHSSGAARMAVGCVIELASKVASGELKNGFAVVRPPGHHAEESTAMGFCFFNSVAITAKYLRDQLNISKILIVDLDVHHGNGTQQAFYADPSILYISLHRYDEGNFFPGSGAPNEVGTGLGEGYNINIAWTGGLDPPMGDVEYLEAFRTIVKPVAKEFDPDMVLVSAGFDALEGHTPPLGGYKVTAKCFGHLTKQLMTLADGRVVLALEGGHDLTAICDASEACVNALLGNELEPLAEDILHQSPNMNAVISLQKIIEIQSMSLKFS
HDAC5, sequence (Q9UQL6 whole entry, canonical isoform): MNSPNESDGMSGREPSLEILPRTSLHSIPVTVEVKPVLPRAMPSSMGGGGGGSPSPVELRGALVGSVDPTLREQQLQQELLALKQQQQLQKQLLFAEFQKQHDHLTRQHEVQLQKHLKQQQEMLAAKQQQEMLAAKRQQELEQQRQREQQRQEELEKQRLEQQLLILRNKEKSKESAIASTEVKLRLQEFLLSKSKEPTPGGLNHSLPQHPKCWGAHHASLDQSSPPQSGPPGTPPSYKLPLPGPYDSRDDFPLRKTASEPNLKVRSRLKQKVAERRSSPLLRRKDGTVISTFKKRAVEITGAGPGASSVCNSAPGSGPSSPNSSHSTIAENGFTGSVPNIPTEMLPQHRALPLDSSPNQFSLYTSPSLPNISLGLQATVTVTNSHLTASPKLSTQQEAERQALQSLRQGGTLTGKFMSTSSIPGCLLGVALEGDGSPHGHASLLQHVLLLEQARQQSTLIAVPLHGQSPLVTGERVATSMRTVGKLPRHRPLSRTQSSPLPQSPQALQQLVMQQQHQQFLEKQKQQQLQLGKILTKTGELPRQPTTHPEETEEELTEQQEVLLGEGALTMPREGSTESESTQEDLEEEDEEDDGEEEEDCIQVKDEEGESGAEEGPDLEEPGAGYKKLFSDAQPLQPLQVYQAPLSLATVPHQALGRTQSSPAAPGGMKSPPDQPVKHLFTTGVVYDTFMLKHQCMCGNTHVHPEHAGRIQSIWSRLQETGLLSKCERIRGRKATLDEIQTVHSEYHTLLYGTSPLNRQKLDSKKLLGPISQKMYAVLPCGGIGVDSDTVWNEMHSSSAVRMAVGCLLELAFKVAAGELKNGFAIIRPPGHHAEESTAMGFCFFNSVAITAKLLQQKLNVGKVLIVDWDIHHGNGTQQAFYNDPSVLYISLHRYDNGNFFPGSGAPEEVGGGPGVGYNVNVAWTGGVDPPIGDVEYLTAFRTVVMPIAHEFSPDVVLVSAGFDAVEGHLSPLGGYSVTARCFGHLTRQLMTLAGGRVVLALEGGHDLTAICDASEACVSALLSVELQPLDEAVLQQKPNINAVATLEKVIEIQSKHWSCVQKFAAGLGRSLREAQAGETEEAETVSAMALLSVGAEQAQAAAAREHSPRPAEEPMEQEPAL

- IC50 (HDAC8): 0.81 µM
- Selectivity for HDAC6 (fold) over HDAC8 (HDAC8): 135 fold
- Selectivity for HDAC6 (fold) over HDAC2 (HDAC2): 20500 fold
- IC50 (HDAC2; NI = No inhibition at a concentration of 50 pM (footnote b), read-out: HDAC isoform IC50, HDAC2): 123 µM
- IC50 (HDAC5): 34.5 µM
- Selectivity for HDAC6 (fold) over HDAC5 (HDAC5): 5750 fold
- IC50 (HDAC7): 105 µM
- Selectivity for HDAC6 (fold) over HDAC7 (HDAC7): 17500 fold
- IC50 (HDAC9): 12.8 µM
- Selectivity for HDAC6 (fold) over HDAC9 (HDAC9): 2130 fold
- IC50 (Human HDAC6): 0.006 µM
Compound: CC(C)(C)OC(=O)Nc1ccc(-c2cc(C(=O)NCCc3cc(C(=O)NO)no3)no2)cc1 [Compound 6, (4-{3-[2-(3-Hydroxycarbamoyl-isoxazol-5-yl)-ethylcarbamoyl]-isoxazol-5-yl}-phenyl)-carbamic acid tert-butyl ester]
- GI50 (L3.6pl): > 50 µM

Reference: US11739064B2, “HDAC inhibitors and therapeutic methods using the same” (THE BOARD OF TRUSTEES OF THE UNIVERSITY OF ILLINOIS, priority 2015, dated 2023)
